According to PMC12406203 (Journal of Medicinal Chemistry, 2025):

Tests used:
Experiment in all cases: KINOMEscan
Type in all cases: binding
PDGFRA = target: T1, PDGFRA (Homo sapiens, UniProt P16234)
T1 construct: purchased Eurofins DiscoverX, LLC; host or cells: E. coli BL21-derived host (T7 phage) or HEK-293
Protocol: (§1) The kinase inhibition profile of compounds 94 and 95 was assessed against 103 protein kinases by Eurofins DiscoverX, LLC., using the KINOMEscan assay. Kinase-tagged T7 phage strains were grown in parallel in 24-well blocks in an E. coli host derived from the BL21 strain. E. coli were grown to log-phase and infected with T7 phage from a frozen stock (multiplicity of infection = 0.4) and incubated with shaking at 32 °C until lysis (90–150 min). The lysates were centrifuged (6000g) and filtered (0.2 μm) to remove cell debris. The remaining kinases were produced in HEK-293 cells and subsequently tagged with DNA for qPCR detection. […] The liganded beads were blocked with excess biotin and washed with blocking buffer (SeaBlock (Pierce), 1% BSA, 0.05% Tween 20, 1 mM DTT) to remove unbound ligand and to reduce nonspecific phage binding. […] Test compounds were prepared as 100× stocks in 100% DMSO and directly diluted into the assay. All reactions were performed in polypropylene 384-well plates in a final volume of 0.02 mL. […] The kinase concentration in the eluates was measured by qPCR.
(§2) The compound(s) were screened at the concentration(s) requested, and results for primary screen binding interactions are reported as RA (%), where lower numbers indicate stronger hits in the matrix. RA=(testcompoundsignal−PCsignal/NCsignal−PCsignal)×100

ULK2 = target: T2, ULK2 (Homo sapiens, UniProt Q8IYT8)
T2 construct: purchased Eurofins DiscoverX, LLC; host or cells: E. coli BL21-derived host (T7 phage) or HEK-293
T2 sequence (Q8IYT8 1-1036): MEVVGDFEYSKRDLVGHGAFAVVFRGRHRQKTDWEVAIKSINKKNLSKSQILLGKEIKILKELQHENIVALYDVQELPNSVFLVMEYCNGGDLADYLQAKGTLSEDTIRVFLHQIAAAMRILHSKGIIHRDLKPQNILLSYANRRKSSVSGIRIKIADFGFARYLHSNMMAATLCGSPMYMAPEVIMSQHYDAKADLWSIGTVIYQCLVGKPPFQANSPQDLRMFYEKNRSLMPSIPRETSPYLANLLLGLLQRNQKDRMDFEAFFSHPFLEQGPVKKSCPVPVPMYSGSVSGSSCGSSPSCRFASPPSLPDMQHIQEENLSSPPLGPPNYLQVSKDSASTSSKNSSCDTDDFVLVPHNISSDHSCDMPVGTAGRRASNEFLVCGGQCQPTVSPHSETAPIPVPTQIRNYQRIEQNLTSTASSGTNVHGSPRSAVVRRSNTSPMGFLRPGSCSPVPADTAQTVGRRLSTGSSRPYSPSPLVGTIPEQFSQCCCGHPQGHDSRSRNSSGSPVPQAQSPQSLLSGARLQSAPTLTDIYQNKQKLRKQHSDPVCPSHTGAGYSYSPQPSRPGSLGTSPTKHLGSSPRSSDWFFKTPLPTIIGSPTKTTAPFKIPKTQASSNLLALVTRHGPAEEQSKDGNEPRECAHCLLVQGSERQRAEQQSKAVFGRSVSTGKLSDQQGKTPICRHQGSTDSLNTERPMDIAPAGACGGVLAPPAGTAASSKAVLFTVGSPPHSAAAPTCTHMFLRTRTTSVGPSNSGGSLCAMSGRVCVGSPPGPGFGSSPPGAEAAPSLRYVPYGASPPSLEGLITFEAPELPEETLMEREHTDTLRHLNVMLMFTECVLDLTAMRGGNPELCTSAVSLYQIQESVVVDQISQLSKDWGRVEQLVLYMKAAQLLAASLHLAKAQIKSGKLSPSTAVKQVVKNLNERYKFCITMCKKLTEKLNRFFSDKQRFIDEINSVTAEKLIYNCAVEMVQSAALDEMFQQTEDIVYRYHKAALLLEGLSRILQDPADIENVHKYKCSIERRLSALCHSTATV
Protocol: as §1, §2

ALK = target: T3, ALK (Homo sapiens, UniProt Q9UM73)
T3 construct: purchased Eurofins DiscoverX, LLC; host or cells: E. coli BL21-derived (T7 phage) or HEK-293
Protocol: as §1, §2

FLT3 = target: T4, FLT3 (Homo sapiens, UniProt P36888)
T4 construct: purchased Eurofins DiscoverX, LLC; host or cells: E. coli (T7 phage) or HEK-293
T4 sequence (P36888 27-993): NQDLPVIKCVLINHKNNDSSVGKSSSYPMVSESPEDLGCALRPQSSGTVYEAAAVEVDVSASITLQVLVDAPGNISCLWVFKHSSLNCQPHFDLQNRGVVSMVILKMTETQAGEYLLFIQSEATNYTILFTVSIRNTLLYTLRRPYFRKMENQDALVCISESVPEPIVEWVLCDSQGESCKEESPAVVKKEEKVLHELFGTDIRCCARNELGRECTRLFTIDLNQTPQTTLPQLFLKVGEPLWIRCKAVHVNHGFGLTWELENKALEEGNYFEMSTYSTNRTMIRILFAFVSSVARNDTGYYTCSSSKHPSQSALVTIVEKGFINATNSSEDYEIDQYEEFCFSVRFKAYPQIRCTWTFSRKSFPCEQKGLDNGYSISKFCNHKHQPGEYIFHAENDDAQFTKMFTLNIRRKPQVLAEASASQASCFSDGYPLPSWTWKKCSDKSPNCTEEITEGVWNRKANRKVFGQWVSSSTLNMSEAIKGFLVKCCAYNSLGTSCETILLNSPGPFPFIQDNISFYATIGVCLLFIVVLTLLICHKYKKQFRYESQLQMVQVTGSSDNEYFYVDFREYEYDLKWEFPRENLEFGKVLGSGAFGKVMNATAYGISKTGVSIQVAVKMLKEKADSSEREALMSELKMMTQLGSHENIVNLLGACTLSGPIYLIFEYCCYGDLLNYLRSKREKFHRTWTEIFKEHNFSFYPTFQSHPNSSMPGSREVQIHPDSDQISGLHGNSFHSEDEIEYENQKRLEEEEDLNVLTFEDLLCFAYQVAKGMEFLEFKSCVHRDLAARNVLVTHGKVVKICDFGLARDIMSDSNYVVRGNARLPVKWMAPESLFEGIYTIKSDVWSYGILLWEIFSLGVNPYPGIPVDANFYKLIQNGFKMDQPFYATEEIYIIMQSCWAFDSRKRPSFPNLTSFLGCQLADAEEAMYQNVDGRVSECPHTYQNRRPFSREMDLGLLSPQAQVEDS
Protocol: as §1, §2

[1] = target: T5, ABL1(E255K)-phosphorylated (Homo sapiens, UniProt P00519, E255K)
T5 construct: purchased Eurofins DiscoverX, LLC; host or cells: E. coli BL21-derived (T7 phage) or HEK-293
Protocol: as §1, §2

PDGFRB = target: T6, PDGFRB (Homo sapiens, UniProt P09619)
T6 construct: purchased Eurofins DiscoverX, LLC; host or cells: E. coli BL21-derived host (T7 phage) or HEK-293
Protocol: as §1, §2

T6 sequence (P09619 33-1106): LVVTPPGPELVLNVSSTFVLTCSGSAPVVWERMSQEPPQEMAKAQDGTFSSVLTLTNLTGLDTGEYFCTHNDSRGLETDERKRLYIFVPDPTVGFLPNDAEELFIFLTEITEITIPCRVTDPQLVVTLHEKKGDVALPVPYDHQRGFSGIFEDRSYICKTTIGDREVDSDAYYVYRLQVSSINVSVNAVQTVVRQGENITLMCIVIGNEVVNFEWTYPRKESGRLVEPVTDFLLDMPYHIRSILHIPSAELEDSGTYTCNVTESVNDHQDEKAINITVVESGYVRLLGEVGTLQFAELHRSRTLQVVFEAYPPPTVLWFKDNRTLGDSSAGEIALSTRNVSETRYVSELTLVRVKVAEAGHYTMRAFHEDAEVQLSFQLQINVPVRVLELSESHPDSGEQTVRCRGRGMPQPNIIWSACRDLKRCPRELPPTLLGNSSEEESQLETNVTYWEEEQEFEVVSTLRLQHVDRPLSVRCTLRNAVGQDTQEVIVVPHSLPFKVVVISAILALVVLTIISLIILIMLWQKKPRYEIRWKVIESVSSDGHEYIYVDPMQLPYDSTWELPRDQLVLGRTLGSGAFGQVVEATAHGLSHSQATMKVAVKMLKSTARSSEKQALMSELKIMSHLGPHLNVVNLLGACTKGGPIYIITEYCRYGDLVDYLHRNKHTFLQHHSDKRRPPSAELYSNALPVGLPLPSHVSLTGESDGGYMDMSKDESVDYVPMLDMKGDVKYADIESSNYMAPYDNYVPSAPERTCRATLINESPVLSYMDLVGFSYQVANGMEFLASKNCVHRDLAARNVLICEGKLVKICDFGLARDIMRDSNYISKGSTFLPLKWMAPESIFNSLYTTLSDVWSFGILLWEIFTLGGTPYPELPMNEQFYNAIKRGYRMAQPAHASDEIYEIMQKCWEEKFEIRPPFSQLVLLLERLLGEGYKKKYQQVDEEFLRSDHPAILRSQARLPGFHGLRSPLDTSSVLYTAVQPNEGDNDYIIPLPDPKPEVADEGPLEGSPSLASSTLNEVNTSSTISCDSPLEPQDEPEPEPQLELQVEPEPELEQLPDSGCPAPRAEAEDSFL
T5 sequence (P00519 whole entry E255K): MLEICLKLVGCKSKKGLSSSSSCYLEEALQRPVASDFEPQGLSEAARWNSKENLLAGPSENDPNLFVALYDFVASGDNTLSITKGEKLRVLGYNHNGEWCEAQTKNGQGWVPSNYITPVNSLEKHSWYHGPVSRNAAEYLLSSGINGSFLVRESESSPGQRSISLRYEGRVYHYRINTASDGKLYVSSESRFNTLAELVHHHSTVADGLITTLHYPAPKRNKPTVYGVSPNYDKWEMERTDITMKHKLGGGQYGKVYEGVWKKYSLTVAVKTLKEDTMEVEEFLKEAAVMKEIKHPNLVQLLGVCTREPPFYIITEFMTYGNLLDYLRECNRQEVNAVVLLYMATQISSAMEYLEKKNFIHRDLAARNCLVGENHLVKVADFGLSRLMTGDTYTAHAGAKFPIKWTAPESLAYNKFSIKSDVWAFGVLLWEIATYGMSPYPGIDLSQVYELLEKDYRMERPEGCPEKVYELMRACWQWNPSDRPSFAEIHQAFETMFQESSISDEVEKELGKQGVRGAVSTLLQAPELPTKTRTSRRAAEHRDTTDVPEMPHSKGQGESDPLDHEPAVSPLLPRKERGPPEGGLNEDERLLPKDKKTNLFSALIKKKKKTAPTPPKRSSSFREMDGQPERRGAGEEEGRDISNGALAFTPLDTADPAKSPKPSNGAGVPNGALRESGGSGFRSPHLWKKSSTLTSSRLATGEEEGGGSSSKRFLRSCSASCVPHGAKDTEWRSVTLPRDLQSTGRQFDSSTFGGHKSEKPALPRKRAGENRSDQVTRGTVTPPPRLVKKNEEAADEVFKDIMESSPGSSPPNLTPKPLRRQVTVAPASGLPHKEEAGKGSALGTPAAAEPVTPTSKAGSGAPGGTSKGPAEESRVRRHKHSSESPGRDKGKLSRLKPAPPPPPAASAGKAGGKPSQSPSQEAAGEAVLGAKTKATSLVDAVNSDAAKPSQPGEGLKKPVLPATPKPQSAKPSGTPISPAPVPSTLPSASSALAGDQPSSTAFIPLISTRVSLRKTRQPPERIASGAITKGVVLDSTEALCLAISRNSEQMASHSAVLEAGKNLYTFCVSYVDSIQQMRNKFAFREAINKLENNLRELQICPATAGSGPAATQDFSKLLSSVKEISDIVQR
T1 sequence (P16234 24-1089): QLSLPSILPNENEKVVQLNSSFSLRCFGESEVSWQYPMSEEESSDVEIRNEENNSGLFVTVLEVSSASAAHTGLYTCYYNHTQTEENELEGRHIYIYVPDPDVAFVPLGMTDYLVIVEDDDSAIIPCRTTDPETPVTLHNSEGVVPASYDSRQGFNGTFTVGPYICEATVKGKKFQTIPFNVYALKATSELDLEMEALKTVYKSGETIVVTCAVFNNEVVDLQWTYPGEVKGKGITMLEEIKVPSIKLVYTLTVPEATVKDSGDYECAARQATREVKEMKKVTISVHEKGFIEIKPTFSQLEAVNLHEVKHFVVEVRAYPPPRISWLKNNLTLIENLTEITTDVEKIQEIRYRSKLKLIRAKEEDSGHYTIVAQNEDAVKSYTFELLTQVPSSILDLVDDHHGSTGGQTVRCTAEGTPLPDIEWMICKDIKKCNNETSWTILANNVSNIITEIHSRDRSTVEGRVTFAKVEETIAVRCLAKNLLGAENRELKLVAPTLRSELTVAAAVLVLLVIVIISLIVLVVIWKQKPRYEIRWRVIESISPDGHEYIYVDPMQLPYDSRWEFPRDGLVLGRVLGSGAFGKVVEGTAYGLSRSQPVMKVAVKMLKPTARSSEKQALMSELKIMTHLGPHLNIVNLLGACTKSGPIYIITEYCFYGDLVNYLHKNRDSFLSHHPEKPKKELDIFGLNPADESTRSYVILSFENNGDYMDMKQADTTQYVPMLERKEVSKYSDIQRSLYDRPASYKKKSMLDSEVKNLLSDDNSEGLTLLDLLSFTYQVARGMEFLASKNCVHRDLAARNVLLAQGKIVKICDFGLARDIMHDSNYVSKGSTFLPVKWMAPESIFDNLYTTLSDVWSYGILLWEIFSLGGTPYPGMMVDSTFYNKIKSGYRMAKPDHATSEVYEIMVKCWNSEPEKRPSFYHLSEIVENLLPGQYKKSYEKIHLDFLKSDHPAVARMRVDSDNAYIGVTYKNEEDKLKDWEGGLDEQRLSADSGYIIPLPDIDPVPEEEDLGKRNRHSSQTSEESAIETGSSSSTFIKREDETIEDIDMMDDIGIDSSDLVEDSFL
T3 sequence (Q9UM73 19-1620): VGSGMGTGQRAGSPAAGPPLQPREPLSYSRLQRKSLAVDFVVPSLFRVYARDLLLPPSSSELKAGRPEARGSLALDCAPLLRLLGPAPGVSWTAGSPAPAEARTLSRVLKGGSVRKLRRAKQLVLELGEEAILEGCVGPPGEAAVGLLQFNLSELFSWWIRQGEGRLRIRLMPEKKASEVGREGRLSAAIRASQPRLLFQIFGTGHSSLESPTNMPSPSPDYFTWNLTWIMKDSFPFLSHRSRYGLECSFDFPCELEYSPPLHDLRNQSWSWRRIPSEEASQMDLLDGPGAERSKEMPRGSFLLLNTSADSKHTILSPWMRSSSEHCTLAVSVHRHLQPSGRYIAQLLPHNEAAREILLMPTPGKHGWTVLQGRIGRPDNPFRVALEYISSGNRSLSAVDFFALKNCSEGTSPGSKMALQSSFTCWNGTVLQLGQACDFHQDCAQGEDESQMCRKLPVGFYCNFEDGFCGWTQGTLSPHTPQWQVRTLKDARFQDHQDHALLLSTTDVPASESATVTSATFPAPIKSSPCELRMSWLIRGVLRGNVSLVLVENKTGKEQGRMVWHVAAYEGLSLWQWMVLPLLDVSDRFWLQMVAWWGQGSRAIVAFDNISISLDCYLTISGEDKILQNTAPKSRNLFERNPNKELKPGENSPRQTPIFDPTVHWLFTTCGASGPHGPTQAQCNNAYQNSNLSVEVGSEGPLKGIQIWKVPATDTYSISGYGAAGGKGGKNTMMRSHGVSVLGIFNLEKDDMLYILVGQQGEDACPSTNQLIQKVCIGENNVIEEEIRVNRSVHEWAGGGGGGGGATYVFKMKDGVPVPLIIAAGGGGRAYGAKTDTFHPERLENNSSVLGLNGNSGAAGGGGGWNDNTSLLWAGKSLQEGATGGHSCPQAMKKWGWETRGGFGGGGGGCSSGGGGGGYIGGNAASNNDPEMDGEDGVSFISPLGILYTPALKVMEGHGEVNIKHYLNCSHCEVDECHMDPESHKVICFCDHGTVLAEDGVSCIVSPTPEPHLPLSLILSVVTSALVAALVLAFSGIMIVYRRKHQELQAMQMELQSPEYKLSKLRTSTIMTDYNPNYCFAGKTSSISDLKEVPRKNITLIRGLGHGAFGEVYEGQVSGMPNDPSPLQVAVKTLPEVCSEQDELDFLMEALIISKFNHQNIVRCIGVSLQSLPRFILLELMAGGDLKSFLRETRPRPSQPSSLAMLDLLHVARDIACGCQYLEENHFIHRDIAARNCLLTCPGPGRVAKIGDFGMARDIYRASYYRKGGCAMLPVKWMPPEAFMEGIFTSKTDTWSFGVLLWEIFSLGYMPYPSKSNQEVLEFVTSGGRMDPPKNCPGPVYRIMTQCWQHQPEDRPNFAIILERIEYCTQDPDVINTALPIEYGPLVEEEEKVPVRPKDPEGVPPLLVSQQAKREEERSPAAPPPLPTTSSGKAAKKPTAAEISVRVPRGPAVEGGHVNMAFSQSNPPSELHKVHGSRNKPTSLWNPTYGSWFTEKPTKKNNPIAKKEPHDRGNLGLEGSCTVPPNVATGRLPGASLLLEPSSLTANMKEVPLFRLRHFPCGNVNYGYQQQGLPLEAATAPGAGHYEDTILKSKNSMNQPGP

SMILES | RA @ 1000nM (PDGFRA) [%] | RA @ 10000nM (PDGFRA) [%] | RA @ 1000nM (ULK2) [%] | RA @ 10000nM (ULK2) [%] | RA @ 1000nM (ALK) [%] | RA @ 10000nM (ALK) [%] | RA @ 1000nM (FLT3) [%] | RA @ 10000nM (FLT3) [%] | RA @ 1000nM [1] [%] | RA @ 10000nM [1] [%] | RA @ 1000nM (PDGFRB) [%] | RA @ 10000nM (PDGFRB) [%]
CC(C)Cn1ncc2cc(Cc3ccc(F)cc3F)c(C(=O)NCCN(C)C)cc21 [Compound 94, 5-(2,4-Difluorobenzyl)-N-(2-(dimethylamino)ethyl)-1-isobutyl-1H-indazole-6-carboxamide] | 96 | 76 | 71 | 88 | 93 | 83 | 100 | 90 | 96 | 55 | 100 | 97
CN(C)CCNC(=O)c1cc2c(cnn2CC2CCCCC2)cc1Cc1ccc(F)cc1F [Compound 95, 1-(Cyclohexylmethyl)-5-(2,4-difluorobenzyl)-N-(2-(dimethylamino)ethyl)-1H-indazole-6-carboxamide] | 92 | 92 | 77 | 75 | 62 | 92 | 100 | 100 | 96 | 93 | 100 | 96
